According to patent publication US7405238B2, “Pharmacological inducement of the fed mode for enhanced drug administration to the stomach” (priority 1999, dated 2008):
Values joined by “and” are separate entries in the source; they are usually repeats but may differ in a detail not shown here. Identical values can stand only once. Peptide text beside a SMILES is read from it.

Key:
female beagles [1] = experiment: Retention time of BaSO4 swelling tablet in stomach, dogs fasted 24 hours, Example 3; format: in vivo, dog; conditions: mean of five dogs fasted 24 hours
Protocol: (§1) Test formulations were administered in various regimens. In some of the tests, the dogs were given an immediate release (IR) regimen in the form of a single gelatin capsule containing a test species in a selected amount. A simulated controlled release (SCR) regimen was used in other tests by administering a gelatin capsule containing a test species in a selected amount every half hour. A third regimen was a controlled release (CR) regimen, in which the test species was incorporated in a compressed tablet of POLYOX 303 and magnesium stearate. […] The barium tablets were visualized every thirty minutes by fluoroscopy until they left the stomach. The time of the last observation of the 800 mg tablet in the stomach was recorded as the retention time. The test group also included a negative control using a fasted dog with no test formulations administered, and a positive control using a dog that was fed a standard 50 g meal but no test formulations.
(§2) Further tests were performed on a second group of dogs, consisting of five female beagles one year in age and weighing 5-7 kg each. The test protocols were the same as those in Example 1 except that the dogs were fasted for 24 hours before each test, and the test results are listed in Table II below, which lists the mean of the results observed among the five dogs as well as the range among the dogs for each test.
Further tests were performed on the second group of dogs, consisting of five female beagles one year in age and weighing 5-7 kg each. The test protocols were the same as those in Example 2, except that the controls were replaced by a negative control consisting of AVICEL (microcrystalline cellulose, FMC Corporation, Philadelphia, Pa., USA), administered as a simulated controlled release at 10 mg every half hour. The test results are listed in Table III below, which lists the mean of the results observed among the five dogs as well as the range among the dogs for each test.

female beagles [2] = experiment: Retention time of BaSO4 swelling tablet in stomach, dogs fasted 24 hours, Example 2; format: in vivo, dog; conditions: mean of five dogs fasted 24 hours
Protocol: (§3) Four dogs, all male beagles ranging in age from 10 months to 21 months and weighing from 6 kg to 10 kg each, were housed individually and each was fed a 1:1 (weight ratio) wet:dry mixture of food weighing 300 g once daily at 3:00 p.m. Water was provided ad libitum. The dogs were fasted for 6-8 hours overnight, preceded by the removal of feces and any uneaten food.
as §1, §2

male beagles = experiment: Retention time of BaSO4 swelling tablet in stomach, dogs, Example 1; format: in vivo, dog; conditions: 7.94 × 19.05 mm BaSO4 tablet, mean of four dogs
Protocol: as §3, §1
The test results in terms of the retention times in hours are shown in Table I, which lists the means of the results observed among the four dogs as well as the range among the dogs for each test.

dogs = conditions: administered in excess of 1 g; cited from earlier work

Molecule: COC(=O)[C@H](Cc1ccccc1)NC(=O)[C@@H](N)CC(=O)O [Aspartame] (H-Asp-Phe-OMe)
- Retention Time (h) Mean (female beagles [1]; 200 mg, IR): 3.8 ± 2.3 h

Molecule: CCCCCCCCCCCCCCCC[n+]1ccccc1.[Cl-] [Cetylpyridinium chloride, reference compound]
- Retention Time (h) Mean (female beagles [2]; 20 mg, IR): 4.5 ± 2.6 h
- Retention Time (h) Mean (female beagles [2]; 50 mg, IR): 4.0 ± 1.3 h
- Retention Time (h) Mean (female beagles [2]; 100 mg, IR): 3.2 ± 0.9 h
- Retention Time (h) Mean (female beagles [1]; 5 mg, IR): 4.0 ± 2.8 h
- Retention Time (h) Mean (female beagles [1]; 20 mg, IR): 4.45 ± 2.6 h

Molecule: N=C(N)NCCC[C@H](N)C(=O)O [L-Arginine]
- Retention Time (h) Mean (male beagles; 300 mg, CR (POLYOX 303 tablet)): 3.6 ± 1.6 h
- Retention Time (h) Mean (male beagles; 400 mg, IR): 1.6 ± 0.2 h
- effect on gastric emptying (dogs): slowed gastric emptying

Molecule: CN(C)C(=O)C(CCN1CCC(O)(c2ccc(Cl)cc2)CC1)(c1ccccc1)c1ccccc1 [Loperamide, 4-(p-chlorophenyl)-4-hydroxy-N,N-dimethyl-α,α-diphenyl-1-piperidinebutyramide, reference compound]
- Retention Time (h) Mean (male beagles; 0.1 mg, IR): 2.5 ± 1.3 h

Molecule: CCCCC(CC)COC(=O)CC(C(=O)OCC(CC)CCCC)S(=O)(=O)O (stereo not drawn) [Na docusate, reference compound]
- Retention Time (h) Mean (male beagles; 200 mg, IR): 2.6 ± 1.4 h

Molecule: NC(Cc1c[nH]c2ccccc12)C(=O)NC(Cc1c[nH]c2ccccc12)C(=O)O (stereo not drawn) [Trp-Trp]
- Retention Time (h) Mean (male beagles; 200 mg, IR): 3.1 ± 3.9 h and 2.1 ± 1.8 h
- Retention Time (h) Mean (male beagles; SCR, 20 mg every thirty minutes): 2.8 ± 0.3 h
- Retention Time (h) Mean (female beagles [2]; SCR, 5 mg every thirty minutes): 4.6 ± 1.5 h
- Retention Time (h) Mean (female beagles [2]; SCR, 10 mg every thirty minutes): 2.4 ± 1.8 h
- Retention Time (h) Mean (female beagles [2]; SCR, 40 mg every thirty minutes): 3.4 ± 1.9 h
- Retention Time (h) Mean (female beagles [1]; SCR, 0.5 mg every thirty minutes): 4.6 ± 1.7 h
- Retention Time (h) Mean (female beagles [1]; SCR, 2 mg every thirty minutes): 4.2 ± 1.1 h

Molecule: OC[C@@H](O)[C@H](O)[C@@H](O)CO [Xylitol, CH2OH—(CHOH)3—CH2OH]
- Retention Time (h) Mean (male beagles; 600 mg, IR): 3.1 ± 1.5 h

Molecule: N[C@@H](Cc1c[nH]c2ccccc12)C(=O)O [tryptophan]
- effect on gastric emptying (dogs): slowed gastric emptying

Molecule: O=C(O)CCCCC1CCSS1 (stereo not drawn) [α-Lipoic acid]
- Retention Time (h) Mean (male beagles; 150 mg, IR): 2.8 ± 1.6 h

Molecule: glycine
- effect on gastric emptying (dogs): slowed gastric emptying

Molecule: β-Casomorphin: peptide released from β-casein; bovine sequence Tyr-Pro-Phe-Pro-Gly-Pro-Ile; species tested not stated (YPFPGPI; printed: Tyr-Pro-Phe-Pro-Gly-Pro-Ile)
- Retention Time (h) Mean (male beagles; 25 mg, IR): 2.6 ± 1.1 h
- Retention Time (h) Mean (female beagles [1]; 10 mg, IR): 3.5 ± 2.1 h
